Results on three compounds are retold here after ChEMBL document CHEMBL1201862, “PubChem BioAssay data set” (2004).

A short description of experiment [1]: loss of A549 viability via ATP – cell-based, plate reader, dry powder, set 7, cytotoxicity control, dose response (AID 743318). Format: functional.
For experiment [2], the target named is Endoplasmic reticulum aminopeptidase 2 (Homo sapiens, UniProt Q6P179). In words: inhibition of ERAP2 Arg-AMC cleavage – biochemical, plate reader, dry powder, set 2, selectivity assay for selective ERAP1 modulator project, dose response (AID 1117289). Format: functional.
The target in experiment [3] is Leucyl-cystinyl aminopeptidase (Mus musculus, UniProt Q8C129). The experiment can be described thus: mouse IRAP aminopeptidase activity inhibition – biochemical, dry powder samples, set 3, selectivity assay for ERAP1 modulator project, dose response (AID 1117288). Format: functional.
Experiment [4] can be described thus: Trypanosoma cruzi growth suppression in host cells – NIH3T3 host cells, beta-gal luminescence, confirmation (AID 2044).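 Further: intracellular parasites grown in NIH/3T3 mouse fibroblasts as host cells; luminescent beta-galactosidase reporter signal from transgenic T. cruzi replicating inside host cells; inhibitors lower the luminescence signal.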 Type of experiment: functional, cell-based.
A short description of experiment [5]: NIH3T3 cell viability loss – ATP luminescence, mouse fibroblasts, counter-screen, dose response (AID 2010).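 Further: cells exposed to compound for about 90 hours before reading.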 Format: functional, cell-based. Particulars: nih3t3. In general terms: A counterscreen serves to expose hits that act by an unwanted route or on another target.
Another experiment deals with INS1. The experiment can be described thus: INS-1E survival protection against cytokine death – cell-based, luminescence, retest, dose response (AID 449756).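 Further: cell death triggered by IL-1 beta plus TNF-alpha plus IFN-gamma mixture; protective hits raise ATP signal compared with cytokine alone wells.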 Format: functional. Particulars: Rattus norvegicus.
The subject of the next experiment is Vero. The experiment can be described thus: cells. Type of experiment: functional. Particulars: Chlorocebus sabaeus.
Experiment [6] is described as follows: cAMP pathway inhibition in counterscreen cell line – TR-FRET cAMP detection, counter-screen for MC4R biased antagonist project, dose response (AID 602305).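 Further: U2OS cells stimulated with forskolin near its EC80 as the cAMP inducer; potency is for inhibition of forskolin-stimulated cAMP signaling.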 Format: functional, cell-based.
The nature of experiment [7]: inhibitors acting on PAX2 in cells – cell-based, plate reader, dry powder samples, selectivity assay for PAX8 inhibitor project, dose response (AID 743048).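 Further: HEK293 cells carrying a WT1 promoter luciferase reporter driven by expressed Pax2; potency is for inhibition of Pax2 driven reporter signal.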 Type of experiment: functional.
Experiment [8] is described as follows: COV362 cell viability loss – plate reader, dry powder, SA12, cytotoxicity control for PAX8 inhibitor project, dose response (AID 743144). Format: functional, cell-based.
The nature of experiment [9]: A2780 cell killing – plate reader, dry powder samples, cytotoxicity control, dose response (AID 743046). Type of experiment: functional, cell-based.
A short description of experiment [10]: OVCAR-3 cell viability loss – plate reader, dry powder samples, PAX8 inhibitor project, dose response (AID 743044). Format: functional, cell-based.
Experiment [11] is described as follows: PAX5 cellular inhibition readout – cell-based, plate reader, dry powder samples, selectivity assay for PAX8 inhibitor project, dose response (AID 743047).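 Further: HEK293 cells carrying a Pax5 driven CD19 promoter luciferase reporter; potency of inhibitors that lower reporter luminescence.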 Type of experiment: functional.
A short description of experiment [12]: IGROV1 cell killing – plate reader, dry powder samples, PAX8 inhibitor project, dose response (AID 743043). Format: functional, cell-based. Particulars: IGROV-1.
Experiment [13] in a line: OVCAR4 cell viability loss – plate reader, dry powder, SA11, cytotoxicity control for PAX8 inhibitor project, dose response (AID 743150). Format: functional, cell-based. Particulars: OVCAR-4.
Experiment [14] can be described thus: COV434 cell viability loss – plate reader, dry powder, SA7, cytotoxicity control for PAX8 inhibitor project, dose response (AID 743145). Format: functional, cell-based.
A short description of experiment [15]: OV-90 cell viability loss – plate reader, dry powder, SA8, PAX8 inhibitor project, dose response (AID 743149). Format: functional, cell-based.
Experiment [16] is described as follows: PAX8-dependent cell viability loss – plate reader, dry powder, dose response (AID 743049). Type of experiment: functional, cell-based.
The nature of experiment [17]: rise of 2N DNA cells, HeLa – IC50, dose response (AID 1117349). Type of experiment: functional, cell-based.
Experiment [18] can be described thus: CellTiter-Glo luminescence survival assay, SW480 colon tumor line, concentration-response curve, half-maximal inhibitory concentration (AID 1117338). Type of experiment: functional. For orientation: ATP-based viability assays read luminescence as a measure of living cells.
A short description of experiment [19]: IC50 of insulin release inhibition, rat insulinoma INS-1E line, 5 mM glucose, cell-based (AID 1117331). Format: functional.
Experiment [20] in a line: RKO cell viability reduction, dose response, CellTiter-Glo luminescence (AID 1117322). Type of experiment: functional.
Experiment [21] can be described thus: cytotoxicity toward HCT116 cells – cell-based, CellTiter-Glo luminescence, IC50, dose response (AID 1117332). Type of experiment: functional. To be noted: HCT-116.
Experiment [22] is described as follows: SNU-C1 cell viability reduction, dose response, CellTiter-Glo luminescence (AID 1117323). Type of experiment: functional, cell-based.
The nature of experiment [23]: glucagon-like peptide-1 release potency in STC-1, concentration-response, half-maximal inhibitory concentration in the STC-1 line (AID 1117345). Format: functional, cell-based.
Experiment [24] in a line: cytotoxicity toward Colo320 cells – cell-based, CellTiter-Glo luminescence, IC50, dose response (AID 1117334). Type of experiment: functional. To be noted: COLO 320.
Experiment [25] is described as follows: rise of 4N DNA cells, HeLa – IC50, dose response (AID 1117351). Type of experiment: functional, cell-based.
Experiment [26] is described as follows: cytotoxicity toward HT-29 cells – cell-based, CellTiter-Glo luminescence, IC50, dose response (AID 1117330). Type of experiment: functional.
Experiment [27] in a line: Reduced DLD-1 viability, concentration-response, CellTiter-Glo luminescence (AID 1117352). Format: functional.
Experiment [28] can be described thus: Potency on glucagon-like peptide 1 release, dose-response in NCI-H716 cell line, half maximal inhibitory concentration (AID 1117344). Format: functional, cell-based.

SMILES strings stand for the structures. Activity calls are given as the source filed them.

Sequence of Leucyl-cystinyl aminopeptidase (Q8C129 whole entry): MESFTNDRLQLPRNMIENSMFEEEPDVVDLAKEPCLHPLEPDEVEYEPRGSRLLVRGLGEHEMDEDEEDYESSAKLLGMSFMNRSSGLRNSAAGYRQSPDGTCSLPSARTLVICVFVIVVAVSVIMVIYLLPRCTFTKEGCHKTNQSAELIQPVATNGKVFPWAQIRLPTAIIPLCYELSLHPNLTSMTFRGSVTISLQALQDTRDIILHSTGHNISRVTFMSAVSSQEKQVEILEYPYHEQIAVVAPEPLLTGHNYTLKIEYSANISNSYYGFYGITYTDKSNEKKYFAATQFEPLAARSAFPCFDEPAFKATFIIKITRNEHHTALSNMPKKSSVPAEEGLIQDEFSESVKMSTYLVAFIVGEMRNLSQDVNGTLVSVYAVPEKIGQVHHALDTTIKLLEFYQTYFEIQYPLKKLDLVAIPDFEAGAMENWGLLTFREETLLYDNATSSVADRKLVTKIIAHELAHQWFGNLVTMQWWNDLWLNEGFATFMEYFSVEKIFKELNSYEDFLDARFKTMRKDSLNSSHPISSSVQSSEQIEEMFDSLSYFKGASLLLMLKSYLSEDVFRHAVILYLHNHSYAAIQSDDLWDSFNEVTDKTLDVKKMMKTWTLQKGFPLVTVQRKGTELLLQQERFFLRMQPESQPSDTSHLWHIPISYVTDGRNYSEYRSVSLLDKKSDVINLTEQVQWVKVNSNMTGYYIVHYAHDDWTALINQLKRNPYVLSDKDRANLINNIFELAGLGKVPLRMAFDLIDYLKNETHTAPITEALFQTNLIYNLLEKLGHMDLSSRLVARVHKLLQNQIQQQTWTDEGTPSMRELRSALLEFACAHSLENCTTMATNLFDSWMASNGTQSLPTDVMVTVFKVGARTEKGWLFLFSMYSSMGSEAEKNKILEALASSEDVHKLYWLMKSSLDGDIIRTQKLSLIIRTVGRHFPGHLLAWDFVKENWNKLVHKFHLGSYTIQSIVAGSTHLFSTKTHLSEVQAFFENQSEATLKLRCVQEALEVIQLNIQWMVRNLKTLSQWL
Sequence of Endoplasmic reticulum aminopeptidase 2 (Q6P179 whole entry): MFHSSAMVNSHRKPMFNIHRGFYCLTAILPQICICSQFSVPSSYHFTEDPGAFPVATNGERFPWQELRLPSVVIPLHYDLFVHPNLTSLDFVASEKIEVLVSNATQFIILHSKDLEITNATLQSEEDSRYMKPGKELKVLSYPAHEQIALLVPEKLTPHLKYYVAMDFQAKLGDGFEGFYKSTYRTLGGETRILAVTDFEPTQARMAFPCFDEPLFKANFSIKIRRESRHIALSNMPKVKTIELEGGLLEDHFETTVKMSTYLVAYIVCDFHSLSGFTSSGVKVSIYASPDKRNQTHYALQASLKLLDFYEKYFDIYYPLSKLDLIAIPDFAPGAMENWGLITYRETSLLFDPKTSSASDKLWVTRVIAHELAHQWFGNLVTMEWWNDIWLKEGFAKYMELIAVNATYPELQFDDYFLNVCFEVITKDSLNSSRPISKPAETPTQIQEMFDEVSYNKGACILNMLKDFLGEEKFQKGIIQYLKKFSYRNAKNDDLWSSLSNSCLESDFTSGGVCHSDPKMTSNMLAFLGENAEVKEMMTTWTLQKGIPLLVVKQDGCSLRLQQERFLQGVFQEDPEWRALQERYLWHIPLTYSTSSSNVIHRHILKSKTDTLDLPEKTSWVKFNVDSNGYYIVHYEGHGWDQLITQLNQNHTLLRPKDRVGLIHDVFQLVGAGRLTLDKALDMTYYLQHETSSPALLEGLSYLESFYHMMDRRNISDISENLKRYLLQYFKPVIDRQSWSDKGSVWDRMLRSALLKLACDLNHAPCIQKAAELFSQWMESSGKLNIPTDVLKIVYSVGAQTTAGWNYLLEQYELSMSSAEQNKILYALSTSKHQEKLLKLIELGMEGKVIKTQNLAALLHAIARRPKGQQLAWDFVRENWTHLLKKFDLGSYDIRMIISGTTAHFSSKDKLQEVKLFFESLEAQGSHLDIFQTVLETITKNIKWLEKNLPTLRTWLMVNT

As to `Cc1ccc(C(C)C)c(OCCn2c(=S)[nH]c3cc(F)ccc32)c1`, the AC50 – broadly, the concentration giving half of the maximal activity seen – in experiment [1] is 26.9 µM (active).
For the compound `COc1ccc(C(=O)O)cc1S(=O)(=O)Nc1ccc(C(F)(F)F)cc1N1CCCCC1`, the AC50 in experiment [2] was 12.5 µM (active); in experiment [3], 77 µM (active).
In the case of `N=C(NCCCCCCNC(=N)NC(=N)Nc1ccc(Cl)cc1)NC(=N)Nc1ccc(Cl)cc1` [CHLORHEXIDINE], the results for the EC50 in experiment [4] and in [5] were 0.178 µM (active) and 6.74 µM (active), respectively. The half-maximal activity concentration (AC50) in the experiment on INS1 is 4.67 µM (active); in experiment [7] it was 13.6 µM (active); in [8], 21.6 µM (active); in experiment [9], 13.9 µM (active); in experiment [10] it was 13.8 µM (active); in experiment [11], 16.4 µM (active). The AC50 was 15.6 µM (active) in experiment [12]; 33.9 µM (active) in [13]; 12.2 µM (active) in experiment [14]; 20 µM (active) in experiment [15]; 12.5 µM (active) in experiment [16]. In addition, the CC50 (as a rule, the concentration giving 50% cytotoxicity) in the experiment on Vero is 8.43 µM (active). The IC50 (as a rule, the midpoint of a concentration-inhibition curve) was 31.8 µM (inactive) in experiment [6]; > 10 µM (inactive) in experiment [17]; 5.67 µM (inactive) in experiment [18]; 25.2 µM (inactive) in [19]; 4.58 µM (active) in [20]; 4.39 µM (active) in experiment [21]. Further, the IC50 in [22] was 0.439 µM (active); in [23], 10.3 µM (inactive); in experiment [24], 5.16 µM (inactive); in experiment [25], > 10 µM (inactive); in [26], 3.79 µM (active); in experiment [27], 2.8 µM (active). The IC50 in experiment [28] is 26.2 µM (inactive).
